According to PubChem BioAssay AID2060485 (Molecular Pharmacology Branch, DTP, NCI, 2025):

Test system: A375 multi-cell spheroids with HUVEC/MSC, viability
Assay: Anticancer human tumor A375 cell line growth inhibition [GQUAD];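 further: spheroids exposed to compounds for seven days before readout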
Conditions: for IC50: curve of first compound; for viability, T/C: stronger effect = lower value
In short: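 Viability of tumor cells grown as complex spheroids with endothelial and stromal cells, exposed to drug combinations. Top concentration at or near clinical Cmax (else 10 microM), diluted in half-log increments.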

[1] = second compound 0.0316 µM, first compound 0.0316 µM
[2] = second compound 0.0316 µM, first compound 0.1 µM
[3] = second compound 0.0316 µM, first compound 0.316 µM
[4] = second compound 0.0316 µM, first compound 1 µM
[5] = second compound 0.0316 µM, first compound 3.16 µM
[6] = second compound 0.0316 µM, first compound 10 µM
[7] = second compound 0.1 µM, first compound 0.0316 µM
[8] = second compound 0.1 µM, first compound 0.1 µM
[9] = second compound 0.1 µM, first compound 0.316 µM
[10] = second compound 0.1 µM, first compound 1 µM
[11] = second compound 0.1 µM, first compound 3.16 µM
[12] = second compound 0.1 µM, first compound 10 µM
[13] = second compound 0.316 µM, first compound 0.0316 µM
[14] = second compound 0.316 µM, first compound 0.1 µM
[15] = second compound 0.316 µM, first compound 0.316 µM
[16] = second compound 0.316 µM, first compound 1 µM
[17] = second compound 0.316 µM, first compound 3.16 µM
[18] = second compound 0.316 µM, first compound 10 µM
[19] = second compound 1 µM, first compound 0.0316 µM
[20] = second compound 1 µM, first compound 0.1 µM
[21] = second compound 1 µM, first compound 0.316 µM
[22] = second compound 1 µM, first compound 1 µM
[23] = second compound 1 µM, first compound 3.16 µM
[24] = second compound 1 µM, first compound 10 µM
[25] = second compound 3.16 µM, first compound 0.0316 µM
[26] = second compound 3.16 µM, first compound 0.1 µM
[27] = second compound 3.16 µM, first compound 0.316 µM
[28] = second compound 3.16 µM, first compound 1 µM
[29] = second compound 3.16 µM, first compound 3.16 µM
[30] = second compound 3.16 µM, first compound 10 µM
[31] = second compound 10 µM, first compound 0.0316 µM
[32] = second compound 10 µM, first compound 0.1 µM
[33] = second compound 10 µM, first compound 0.316 µM
[34] = second compound 10 µM, first compound 1 µM
[35] = second compound 10 µM, first compound 3.16 µM
[36] = second compound 10 µM, first compound 10 µM

Work on `O=C(c1cc(Cc2n[nH]c(=O)c3ccccc23)ccc1F)N1CCN(C(=O)C2CC2)CC1` + Cc1cnc(CNC(=O)c2c(=O)c3ccc(N4CCCN(C)CC4)nc3n3c2sc2ccccc23)cn1 yielded an IC50 (second compound 0.0316 µM) of over 10000 nM, an IC50 (second compound 0.1 µM) of over 10000 nM and an IC50 (second compound 0.316 µM) of 760 nM. For the same compound, the IC50 (second compound 1 µM) was under 31.6 nM, the IC50 (second compound 3.16 µM) was under 31.6 nM and the IC50 (second compound 10 µM) was under 31.6 nM. For the same compound, the viability, T/C [1] was 108%, the viability, T/C [2] was 98.9% and the viability, T/C [3] was 101%. For the same compound, the viability, T/C [4] was 95.5%, the viability, T/C [5] was 85.4% and the viability, T/C [6] was 68.1%. The viability, T/C [7] was 80.9%, the viability, T/C [8] was 71.1% and the viability, T/C [9] was 65.8%. It also gave a viability, T/C [10] of 65.3%, a viability, T/C [11] of 61.8% and a viability, T/C [12] of 51.8%. For the same compound, the viability, T/C [13] was 49.5%, the viability, T/C [14] was 57.8% and the viability, T/C [15] was 58.6%. The viability, T/C [16] was 48.3%, the viability, T/C [17] was 45% and the viability, T/C [18] was 42%. It also gave a viability, T/C [19] of 40.6%, a viability, T/C [20] of 40.6% and a viability, T/C [21] of 43.6%. For the same compound, the viability, T/C [22] was 35.7%, the viability, T/C [23] was 38% and the viability, T/C [24] was 34.7%. For the same compound, the viability, T/C [25] was 32%, the viability, T/C [26] was 36.7% and the viability, T/C [27] was 43%. The viability, T/C [28] was 31.4%, the viability, T/C [29] was 30.8% and the viability, T/C [30] was 32.7%. The viability, T/C [31] was 26.9%, the viability, T/C [32] was 30.4% and the viability, T/C [33] was 30.5%. For the same compound, the viability, T/C [34] was 29.2%, the viability, T/C [35] was 30.2% and the viability, T/C [36] was 24.8%.
`CC(C)(O)C1CCC(Nc2ccc3ncc(-c4cccc(C(F)(F)F)c4)n3n2)CC1` (stereo not drawn) + CN(C)c1ccc(Nc2c3ccc(NC(=O)CCN4CCCC4)cc3nc3cc(NC(=O)CCN4CCCC4)ccc23)cc1 gave an IC50 (second compound 0.0316 µM) of over 10000 nM, an IC50 (second compound 0.1 µM) of over 10000 nM and an IC50 (second compound 0.316 µM) of over 10000 nM. For the same compound, the IC50 (second compound 1 µM) was over 10000 nM, the IC50 (second compound 3.16 µM) was 10000 nM and the IC50 (second compound 10 µM) was 2180 nM. It also gave a viability, T/C [1] of 95.9%, a viability, T/C [2] of 93% and a viability, T/C [3] of 95.7%. The viability, T/C [4] was 104%, the viability, T/C [5] was 84% and the viability, T/C [6] was 92.9%. For the same compound, the viability, T/C [7] was 93.1%, the viability, T/C [8] was 92.6% and the viability, T/C [9] was 96.6%. It also gave a viability, T/C [10] of 90.6%, a viability, T/C [11] of 79.2% and a viability, T/C [12] of 88.5%. The viability, T/C [13] was 99%, the viability, T/C [14] was 91.2% and the viability, T/C [15] was 88.9%. It also gave a viability, T/C [16] of 104%, a viability, T/C [17] of 80.6% and a viability, T/C [18] of 92.8%. For the same compound, the viability, T/C [19] was 96.7%, the viability, T/C [20] was 92.4% and the viability, T/C [21] was 97.7%. For the same compound, the viability, T/C [22] was 95.1%, the viability, T/C [23] was 75.9% and the viability, T/C [24] was 85%. It also gave a viability, T/C [25] of 93.7%, a viability, T/C [26] of 99.2% and a viability, T/C [27] of 97.7%. The viability, T/C [28] was 98.1%, the viability, T/C [29] was 49.6% and the viability, T/C [30] was 68.7%. It also gave a viability, T/C [31] of 94.6%, a viability, T/C [32] of 91.2% and a viability, T/C [33] of 96.7%. The viability, T/C [34] was 84.9%, the viability, T/C [35] was 25.9% and the viability, T/C [36] was 40.9%.
Work on `CC(C)n1c(=O)n(C)c2cnc3cc(F)c(-c4ccc(OCCCN5CCCCC5)nc4)cc3c21` + Cc1cnc(CNC(=O)c2c(=O)c3ccc(N4CCCN(C)CC4)nc3n3c2sc2ccccc23)cn1 yielded an IC50 (second compound 0.0316 µM) of over 10000 nM, an IC50 (second compound 0.1 µM) of over 10000 nM and an IC50 (second compound 0.316 µM) of 778 nM. For the same compound, the IC50 (second compound 1 µM) was 85.3 nM, the IC50 (second compound 3.16 µM) was under 31.6 nM and the IC50 (second compound 10 µM) was under 31.6 nM. For the same compound, the viability, T/C [1] was 108%, the viability, T/C [2] was 90.5% and the viability, T/C [3] was 98.4%. It also gave a viability, T/C [4] of 82.2%, a viability, T/C [5] of 72.5% and a viability, T/C [6] of 58.7%. The viability, T/C [7] was 77.6%, the viability, T/C [8] was 64.2% and the viability, T/C [9] was 74.2%. It also gave a viability, T/C [10] of 63.4%, a viability, T/C [11] of 55.5% and a viability, T/C [12] of 50.7%. For the same compound, the viability, T/C [13] was 60.5%, the viability, T/C [14] was 53.1% and the viability, T/C [15] was 53%. For the same compound, the viability, T/C [16] was 49.8%, the viability, T/C [17] was 45.6% and the viability, T/C [18] was 37.6%. For the same compound, the viability, T/C [19] was 56%, the viability, T/C [20] was 47.4% and the viability, T/C [21] was 40.4%. The viability, T/C [22] was 45.2%, the viability, T/C [23] was 40.3% and the viability, T/C [24] was 30.5%. For the same compound, the viability, T/C [25] was 43.7%, the viability, T/C [26] was 41.9% and the viability, T/C [27] was 40%. The viability, T/C [28] was 36.8%, the viability, T/C [29] was 37.2% and the viability, T/C [30] was 28.4%. It also gave a viability, T/C [31] of 35.8%, a viability, T/C [32] of 39% and a viability, T/C [33] of 38.9%. The viability, T/C [34] was 34.2%, the viability, T/C [35] was 30.3% and the viability, T/C [36] was 22.8%.
In the case of `Nc1ccn(C2OC(CO)C(O)C2(F)F)c(=O)n1` (stereo not drawn) + Cc1cnc(CNC(=O)c2c(=O)c3ccc(N4CCCN(C)CC4)nc3n3c2sc2ccccc23)cn1, the IC50 (second compound 0.0316 µM) is reported as under 31.6 nM, the IC50 (second compound 0.1 µM) is reported as under 31.6 nM and the IC50 (second compound 0.316 µM) is reported as under 31.6 nM. The IC50 (second compound 1 µM) was under 31.6 nM, the IC50 (second compound 3.16 µM) was under 31.6 nM and the IC50 (second compound 10 µM) was under 31.6 nM. For the same compound, the viability, T/C [1] was 22.9%, the viability, T/C [2] was 10.1% and the viability, T/C [3] was 10.4%. The viability, T/C [4] was 10.4%, the viability, T/C [5] was 8.9% and the viability, T/C [6] was 7.49%. The viability, T/C [7] was 23.4%, the viability, T/C [8] was 10.8% and the viability, T/C [9] was 9.94%. It also gave a viability, T/C [10] of 10.3%, a viability, T/C [11] of 9.17% and a viability, T/C [12] of 7.13%. The viability, T/C [13] was 22.3%, the viability, T/C [14] was 12.7% and the viability, T/C [15] was 9.56%. For the same compound, the viability, T/C [16] was 11.4%, the viability, T/C [17] was 10% and the viability, T/C [18] was 7.6%. It also gave a viability, T/C [19] of 28.3%, a viability, T/C [20] of 14.9% and a viability, T/C [21] of 13.3%. The viability, T/C [22] was 13.8%, the viability, T/C [23] was 12.5% and the viability, T/C [24] was 7.97%. For the same compound, the viability, T/C [25] was 29%, the viability, T/C [26] was 20.9% and the viability, T/C [27] was 18.9%. It also gave a viability, T/C [28] of 14.1%, a viability, T/C [29] of 11.8% and a viability, T/C [30] of 6.29%. The viability, T/C [31] was 24.9%, the viability, T/C [32] was 22.1% and the viability, T/C [33] was 19.1%. It also gave a viability, T/C [34] of 14.6%, a viability, T/C [35] of 10.9% and a viability, T/C [36] of 2.89%.
